In US20100074846A1, “Campylobacter Vaccines and Methods of use” (priority 2006, published 2010):

System: Campylobacter species pig isolates
Assay: nalidixic acid and cephalothin antibiotic sensitivity and resistance testing of pig isolates
Type: cell-based, Campylobacter coli

Row | Structure (SMILES) | antibiotic sensitivity/resistance (pig isolate 1-Group B) | antibiotic sensitivity/resistance (pig isolate 2-Group B) | antibiotic sensitivity/resistance (pig isolate 3-Group A) | antibiotic sensitivity/resistance (pig isolate 3-Group B) | antibiotic sensitivity/resistance (pig isolate 4-Group A) | antibiotic sensitivity/resistance (pig isolate 6-Group A) | antibiotic sensitivity/resistance (pig isolate 7-Group A)
1 | CC(=O)OCC1=C(C(=O)O)N2C(=O)[C@@H](NC(=O)Cc3cccs3)[C@H]2SC1 [Cph, cephalothin] | S | R | R | R | S | R | R
2 | CCn1cc(C(=O)O)c(=O)c2ccc(C)nc21 [NA, nalidixic acid] | S | S | R | S | S | S | S
